Assay results taken from BindingDB's records for doi:10.1021/acs.jmedchem.9b00506 (Rapt Therapeutics, 2019).

Assay: Antagonist activity at CCR4 in anti-CD3/CD28 stimulated mouse Treg cells assessed as inhibition of CCL22-mediated chemotaxis in presence of 100% human serum pre-incubated for 30 mins followed by CCL22 addition and measured after 60 mins by chemoTX probe based CellTiter-Glo assay

| Structure (SMILES) | IC50 [nM] |
| --- | --- |
| C[C@@H]1CC(c2cnc3c(C#N)nn([C@H](C)c4ccc(Cl)cc4Cl)c3n2)=CC[C@@H]1N1CCC[C@H]1C | 325 |
| C[C@@H]1CC(c2cnc3c(C#N)nn([C@H](C)c4ccc(Cl)cc4Cl)c3n2)=CC[C@@H]1N1CCC[C@H]1CO | 165 |

Assay: Antagonist activity at CCR4 in human CCRF-CEM cells assessed as inhibition of CCL22-mediated chemotaxis in presence of 100% human serum pre-incubated for 30 mins followed by CCL22 addition and measured after 60 mins by chemoTX probe based CellTiter-Glo assay

| Structure (SMILES) | IC50 [nM] |
| --- | --- |
| Cc1nn([C@H](C)c2ccc(Cl)cc2Cl)c2nc(N3CC[C@H](N4CCC[C@H]4CCC(N)=O)[C@H](C)C3)cnc12 | 355 |
| Cc1nn([C@H](C)c2ccc(Cl)cc2Cl)c2nc(N3CC[C@H](N4CCC[C@H]4CCS(N)(=O)=O)[C@H](C)C3)cnc12 | 259 |
| C[C@@H]1CC(c2cnc3c(C#N)nn([C@H](C)c4ccc(Cl)cc4Cl)c3n2)=CC[C@@H]1N1CCC[C@H]1C(N)=O | 1380 |
| Cc1nn([C@H](C)c2ccc(Cl)cc2Cl)c2nc(N3CC[C@H](N4CCCCC4)[C@H](C)C3)cnc12 | 361 |
| C[C@@H]1CC(c2cnc3c(C#N)nn([C@H](C)c4ccc(Cl)cc4Cl)c3n2)=CC[C@@H]1N1CCC[C@H]1C | 44 |
| C[C@@H]1CC(c2cnc3c(C#N)nn([C@H](C)c4ccc(Cl)cc4Cl)c3n2)=CC[C@@H]1N1CCC[C@H]1CO | 70 |
| C[C@@H]1CC(c2cnc3c(C#N)nn([C@H](C)c4ccc(Cl)cc4Cl)c3n2)=CC[C@@H]1N1CCC[C@H]1C(C)(C)O | 1200 |
| Cc1nn([C@H](C)c2ccc(Cl)cc2Cl)c2nc(C3=CC[C@H](N4CCC[C@H]4CO)[C@H](C)C3)cnc12 | 179 |
| C[C@@H]1CC(c2cnc3c(C#N)nn([C@H](C)c4ccc(Cl)cc4Cl)c3n2)=CC[C@@H]1N1CCC[C@H]1CN | 638 |
| Cc1nn([C@H](C)c2ccc(Cl)cc2Cl)c2nc(N3CC[C@H](N4CCC[C@H]4CCC#N)[C@H](C)C3)cnc12 | 865 |
